This note sets out measurements from US12428412B2 (DANA-FARBER CANCER INSTITUTE, INC., priority 2018, dated 2025).

Data set [1] can be described thus: In vivo study blood analysis. Particulars: mice, after 14 days. From the text: Blood samples were taken from mice treated daily with 40 mpk intraperitoneal injection (IP) after 14 days.
A further data set relates to CRBN k/o cell lines. The data set is described as follows: Cell viability in CRBN knockout Kelly cell lines. The class given is cell-based. As for the experimental part:
CPD 1 was tested in CRBN knockout (k/o) Kelly cell lines. The experimental protocol is the same as in Example 24.

The target in the next data set is T1, HAT (EP300) domain (Homo sapiens, UniProt Q09472).
T1 sequence (Q09472 1287-1663 limits assumed): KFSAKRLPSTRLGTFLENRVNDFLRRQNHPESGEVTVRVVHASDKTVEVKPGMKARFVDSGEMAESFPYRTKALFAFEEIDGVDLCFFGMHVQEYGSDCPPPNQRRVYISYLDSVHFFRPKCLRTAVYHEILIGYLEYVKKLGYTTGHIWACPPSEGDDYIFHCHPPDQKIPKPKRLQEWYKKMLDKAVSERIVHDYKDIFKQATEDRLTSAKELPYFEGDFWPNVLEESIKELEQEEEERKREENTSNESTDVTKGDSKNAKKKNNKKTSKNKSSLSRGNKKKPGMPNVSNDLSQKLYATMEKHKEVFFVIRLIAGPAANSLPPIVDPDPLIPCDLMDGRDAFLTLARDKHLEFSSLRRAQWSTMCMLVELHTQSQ
The data set is described as follows: AlphaScreen assay, HAT (EP300) domain. The class given is binding. The procedure: The AlphaScreen™ assay was performed in 384-well plate format using white AlphaPlate (PerkinElmer®, USA), and transfer of pre-diluted compound (100 nL) was performed using a Janus Workstation (PerkinElmer®, USA). All subsequent steps were carried out in assay buffer (50 mM 4-(2-hydroxyethyl)-1-piperazineethanesulfonic acid (HEPES), pH 7.5, 0.1% (wt/vol) bovine serum albumin (BSA) and 0.01% (vol/vol) Tween-20). In brief, 10 μL of assay buffer containing enzyme (2 nM Final) was pre-incubated for 15 min with dilutions of compound. The enzyme reaction was initiated by the addition of substrate (5 μL) consisting of acetyl Co-A 2-OG (5 μM Final).
FAS final concentration was 10 μM. Histone tail-GGK Biotin final concentration was 100 nM Final. The enzyme reaction was allowed to proceed for 30 minutes and was stopped by the addition of 5 μL of assay buffer containing ethylenediaminetetraacetic acid (EDTA) (40 mM) and NaCl (1200 mM). The final concentration of dimethyl sulfoxide (DMSO) was 1%. Streptavidin donor beads (0.08 mg/mL) and protein-A-conjugated acceptor beads (0.08 mg/mL) were preincubated for 1 h with antibody to methyl mark (300 ng/mL Final), and the presence of histone H3 product acetylation mark was detected using the preincubated AlphaScreen™ beads (5 μL). Detection was allowed to proceed for 2 hours at rt, and the assay plates were read on the Envision™ 2104 plate reader. Data were normalized to the (no-enzyme) control, and the IC50 values were determined via nonlinear regression curve fit using GraphPad Prism (FIG. 4E-FIG. 4H).
AlphaScreen™ assay was used to determine the binding of inventive degrader compound toward both CRBN and HAT domain. The experimental protocol is the same as in Example 26.
For orientation: Alpha assays give light when donor and acceptor beads are brought close together.

With `C[C@H](N(Cc1ccc(F)cc1)C(=O)CN1C(=O)O[C@@]2(CCc3cc(NC(=O)CCCCCCCCCCCNc4ccc5c(c4)C(=O)N(C4CCC(=O)NC4=O)C5=O)ccc32)C1=O)C(F)(F)F` (stereo partly drawn) [CPD 1, 12-((2-(2,6-dioxopiperidin-3-yl)-1,3-dioxoisoindolin-5-yl)amino)-N—((R)-3′-(2-((4-fluorobenzyl)((S)-1,1,1-trifluoropropan-2-yl)amino)-2-oxoethyl)-2′,4′-dioxo-2,3-dihydrospiro[indene-1,5′-oxazolidin]-5-yl)dodecanamide], in data set [1] (40 mg/kg IP daily), the ALP came to 51 U/L, the ALT is 54 U/L, the AST was determined as 37 U/L and the Albumin came out at 3.2 g/dL. In data set [1] (40 mg/kg IP daily), this compound showed a Basophils of 0.02 K/μL, a Creatinine of 0.17 mg/dL, an Eosinophils of 0.10 K/μL and a GGTP of 5. In data set [1] (40 mg/kg IP daily), this compound returned a Hematocrit of 41.2%, a Hemoglobin of 13.35 g/dL, a Lymphocytes of 1.80 K/μL and a Monocytes of 0.35 K/μL. In data set [1] (40 mg/kg IP daily), this compound gave a Neutrophils of 1.2 K/μL, a Platelet of 528 K/μL and a WBC of 3.46 K/μL. Besides, in data set [1] (40 mpk IP daily), the “toxicity by blood sample measurements” value is listed as “not toxic”. For the same compound, in the data set on CRBN k/o cell lines, the “cell growth inhibition in CRBN k/o cell lines” value is reported as “did not affect CRBN k/o cell lines”. Besides, on HAT (EP300) domain, the “binding to HAT (EP300) domain” value was “bound and bind”.
